Like-named read-outs stand apart in the source and are kept apart here.

The values below come from patent US6133279A, “Therapeutic agents for renal diseases and organ preservatives” (Chugai Seiyaku Kabushiki Kaisha, priority 1996, dated 2000).

The subject of test [1] is porcine kidney-derived LLC-PK1 cells. The test is described as follows: Protective effect against oxidized LDL-induced injury of porcine kidney-derived LLC-PK1 cells (1). Particulars: Sus scrofa, LLC-PK1, 6 h, mean ± standard deviation, read-out: Cytoprotection rate (%). The test is classed as cell-based. The method, then: For the purpose of evaluating in vitro cytoprotective effect of the compounds of the present invention, a cytoprotective study was performed using porcine kidney-derived LLC-PK1 cells (ATCC-CRL-13921) injured by oxidized low-density lipoprotein (oxidized LDL).
Oxidized LDL was prepared by incubating 1 mg/ml of rabbit LDL in PBS (-) in the presence of 10 μM CuSO4 at 37° C. for 24 hours. Cell culture was carried out by plating 1.25×10^4 cells/250 μl/well on a 48-well plate containing M199 medium containing 3% FBS. Test compounds were dissolved or suspended in ethanol and added to the wells in an amount of 1.25 μl/well to a concentration of 0.1, 1 or 10 μM in each well. After 16 hours or immediately after the addition of the compounds, oxidized LDL was added to the wells. Probucol, α-tocopherol and Trolox which is a water-soluble analogue of α-tocopherol were used as reference control compounds. Oxidized LDL was diluted twice with saline and then added to the wells in an amount of 62.5 μl/well to a concentration of 100 μg/ml and the cells were cultured for 6 hours after addition of the oxidized LDL. Then, 162.5 μl/well of the culture medium were collected and measured for the lactate dehydrogenase (LDH) level (LD-L: SIGNA DIAGNOSTICS) having leaked into the medium.
The magnitude of cytoprotective effect was expressed as the cytoprotection rate which was determined by calculating the data assuming that the magnitude in wells containing oxidized LDL is 0% and that the magnitude in wells containing saline is 100%.

In test [2] the test system is puromycin-induced nephrosis model. Description: Puromycin-induced nephrosis (2), postadministration (in vivo). Further details: species or system rat (male SD rats). Particulars: 200 mg/kg oral once a day from the day following puromycin; for Creatinine: control 0.82 ± 0.07; for Urine nitrogen: control 30.74 ± 10.95; for Creatinine clearance: control 824 ± 108. The procedure:
Effect of the compounds of the present invention on an in vivo renal disease was studied using a puromycin-induced nephrosis model. A puromycin-induced renal failure model was prepared from rats in groups of 5-8 each (6 week-old male SD rats) fed with high-fat diet. High-fat diet feeding was started by free access to high-fat diet (cholesterol level 1.25%) from 7 days before puromycin treatment. Puromycin (puromycin aminonucleoside, SIGMA Chemical Co.) treatment was performed by intraperitoneal administration at a dose of 100 mg/kg. Test compounds were administered as a solution in soybean oil via oral route (4 ml/kg). Control group was orally administered soybean oil alone. Probucol and a water-soluble α-tocopherol analogue, Trolox, were used as reference control compounds. The compounds were orally administered once a day from the following day of the puromycin treatment. Renal functions were determined by using urine and blood samples. The volume of urine, urea nitrogen level and creatinine levels of serum and urine were evaluated to calculate creatinine clearance as an indication of renal functions.

In test [3] the test system is murine mesangial derived MES13 cells. Description: Protective effect against oxidized LDL-induced injury of murine mesangial cells (in vitro). The test is classed as cell-based. Particulars: Mus musculus, MES13, 10 h, mean ± standard deviation, read-out: Cytoprotection rate (%). The method, then:
For the purpose of evaluating in vitro cytoprotective effect of the compounds of the present invention on mesangial cells, a cytoprotective study was performed using murine mesangial derived MES13 cells (ATCC-CRL-1927) injured by oxidized LDL.
Oxidized LDL was prepared in the same manner as in Test example 1. Cell culture was carried out by plating 2.5×10^4 cells/250 μl/well on a 48-well plate using FBS-free medium (mixture of DME medium and F12 medium in a ratio of 3:1). Test compounds were dissolved or suspended in ethanol and added to the wells in an amount of 1.25 μl/well to a concentration of 1 or 10 μM in each well. After 16 hours or immediately after the addition of the compounds, oxidized LDL was added to cells in an amount of 25 μl/well to a concentration of 91 μg/ml and the cells were cultured for 10 hours after addition of the oxidized LDL. Then, 150 μl/well of the culture medium were collected and measured for the lactate dehydrogenase level (LDL: SIGMA DIAGNOSTICS) having leaked in the medium.
The magnitude of cytoprotective effect was expressed as the cytoprotection rate which was determined by calculating the data assuming that the magnitude in wells containing oxidized LDL is 0% and that the magnitude in containing saline is 100%.

For test [4], the system named is porcine kidney-derived LLC-PK1 cells. Description: Protective effect against oxidized LDL-induced injury of porcine kidney-derived LLC-PK1 cells (2). The note with it: Sus scrofa, LLC-PK1, 6 h, mean ± standard deviation, read-out: Cytoprotection rate (%). The test is classed as cell-based. The procedure:
For the purpose of evaluating in vitro cytoprotective effect of the compounds of the present invention, a cytoprotective study was performed using porcine kidney-derived LLC-PK1 cells (ATCC-CRL-13921) injured by oxidized low-density lipoprotein (oxidized LDL) in the same manner as in Test example 1 with the exception of some points.
Preparation of oxidized LDL and the conditions for cell culture and addition of test compounds were the same as in Test example 1. However, oxidized LDL was not diluted with saline and added to cells in an amount of 25 μl/well to a concentration of 91 μg/ml and the cells were cultured for 6 hours after addition of the oxidized LDL. Then, 150 μl/well of the culture medium were collected and measured for the lactate dehydrogenase (LDH) level (LD-L: SIGMA DIAGNOSTICS) having leaked in the medium.

The conditions of test [5]: literature; cited from earlier work.
Setting [6] is: compound added 16 hours before adding oxidized LDL.
Where [7] appears, read: compound added immediately before adding oxidized LDL.

As for `CC(C)(C)c1cc2c(c(C(C)(C)C)c1O)CC(Cc1ccccc1)(Cc1ccccc1)O2` [Example 16, 4,6-Di-t-butyl-2,2-dibenzyl-5-hydroxy-2,3-dihydrobenzofuran], in test [1] (setting [6]), the inhibition at 0.1 µM was 12 ± 7.5%, the inhibition at 1 µM turned out to be 94.5 ± 4.9% and the inhibition at 10 µM stood at 98.3 ± 0.3%. Also, in test [1] (setting [7]), the inhibition at 0.1 µM is -36.7 ± 6.6%, the inhibition at 1 µM was 74.4% and the inhibition at 10 µM was found to be 99.6 ± 0.1%. In addition, in test [2], the “Creatinine” value was determined as 0.73 ± 0.06 mg/dL, the “Urine nitrogen” value was found to be 31.82 ± 10.84 mg/dL and the “Creatinine clearance” value is 925 mL/day.

With `CC(C)(C)c1cc2c(c(C(C)(C)C)c1O)CC1(CCCCCC1)O2` [Example 20, 4,6-Di-t-butyl-5-hydroxy-2,3-dihydrobenzofuran-2-spiro-1'-cycloheptane], in test [1] (setting [6]), the inhibition at 0.1 µM is -11.3 ± 8.5%, the inhibition at 1 µM turned out to be 98.6 ± 1.2% and the inhibition at 10 µM is 106 ± 1.2%. For the same molecule, in test [1] (setting [7]), the inhibition at 0.1 µM is -15.8 ± 8%, the inhibition at 1 µM was determined as 99.9% and the inhibition at 10 µM turned out to be 102 ± 4.7%. In addition, in test [2], the “Creatinine” value is 0.61 ± 0.08 mg/dL, the “Urine nitrogen” value was 25.40 ± 10.28 mg/dL and the “Creatinine clearance” value is 1144 ± 172 mL/day.

Turning to `CC1(CNC(N)=S)Cc2c(cc(C(C)(C)C)c(O)c2C(C)(C)C)O1` (centres unmarked) [Example 80, 1-[(4,6-Di-t-butyl-5-hydroxy-2-methyl-2,3-dihydrobenzofuran-2-yl)methyl]thiourea], the inhibition at 1 µM is -7 ± 0.8% in test [3] (setting [6]), -1.3 ± 3.4% in test [3] (setting [7]), 23.7 ± 5.8% in test [4] (setting [6]) and 10.7% in test [4] (setting [7]). Also, the inhibition at 10 µM stood at 22.1 ± 0.7% in test [3] (setting [6]), 56.2 ± 2.4% in test [3] (setting [7]), 102.4 ± 0.5% in test [4] (setting [6]) and 102.6 ± 1% in test [4] (setting [7]). Further, the figures for the inhibition at 0.1 µM in test [4] (setting [6]) and in test [4] (setting [7]) were 9.2 ± 1.8% and -1.3 ± 1.4%, respectively.

For the molecule `CC1(CNC(=N)NN)Cc2c(cc(C(C)(C)C)c(O)c2C(C)(C)C)O1` (centres unmarked) [Example 81, 1-Amino-3-[(4,6-di-t-butyl-5-hydroxy-2-methyl-2,3-dihydrobenzofuran-2-yl)methyl]guanidine], the inhibition at 1 µM in test [3] (setting [6]) was -3.9 ± 1.5%; in test [3] (setting [7]), 3.9 ± 2.2%; in test [4] (setting [6]), 4.2 ± 5.1%; in test [4] (setting [7]), 37.8%. Besides, the inhibition at 10 µM in test [3] (setting [6]) stood at 7.3 ± 7.2%; in test [3] (setting [7]) it was 73.4 ± 3.3%; in test [4] (setting [6]), 101.1 ± 0.1%; in test [4] (setting [7]) it was 101.3 ± 0.1%. Also, the inhibition at 0.1 µM stood at 6.9 ± 3.1% in test [4] (setting [6]) and 8.8 ± 1.6% in test [4] (setting [7]).

With `CC1(COc2ccc(CNNC(=N)N)cc2)Cc2c(cc(C(C)(C)C)c(O)c2C(C)(C)C)O1` (centres unmarked) [Example 86, 1-{4-[(4,6-Di-t-butyl-5-hydroxy-2-methyl-2,3-dihydrobenzofuran-2-yl)methoxy]benzylamino}guanidine], the inhibition at 1 µM in test [3] (setting [6]) is -1 ± 11.2%; in test [3] (setting [7]), 19.8 ± 7%; in test [4] (setting [6]), 3.6 ± 5.8%; in test [4] (setting [7]), 0.2%. For the same molecule, the inhibition at 10 µM is -4.3 ± 1.9% in test [3] (setting [6]), 78.7 ± 0.7% in test [3] (setting [7]), 40 ± 2.2% in test [4] (setting [6]) and 102.5 ± 0.5% in test [4] (setting [7]). In addition, the inhibition at 0.1 µM in test [4] (setting [6]) was -0.4 ± 1.9%; in test [4] (setting [7]), -0.7 ± 2.3%.

`CC1(CNNC(=N)N)Cc2c(cc(C(C)(C)C)c(O)c2C(C)(C)C)O1` (centres unmarked) [Example 87, 1-[(4,6-Di-t-butyl-5-hydroxy-2-methyl-2,3-dihydrobenzofuran-2-yl)methylamino]guanidine]: the inhibition at 1 µM turned out to be 3.7 ± 3.3% in test [3] (setting [6]), 30.3 ± 3.8% in test [3] (setting [7]), 6.5 ± 5.2% in test [4] (setting [6]) and 28.6% in test [4] (setting [7]). For the same molecule, the inhibition at 10 µM was determined as 35.5 ± 4.2% in test [3] (setting [6]), 86.2 ± 0.6% in test [3] (setting [7]), 103.6 ± 0.5% in test [4] (setting [6]) and 101.8 ± 0.6% in test [4] (setting [7]). Besides, the inhibition at 0.1 µM in test [4] (setting [6]) was -7.8 ± 4.4%; in test [4] (setting [7]), -0.3 ± 0.5%.

Take `CC(C)(Sc1cc(C(C)(C)C)c(O)c(C(C)(C)C)c1)Sc1cc(C(C)(C)C)c(O)c(C(C)(C)C)c1` [Probucol, probucol, reference compound]: in test [1] (setting [6]), the inhibition at 0.1 µM is 22.5 ± 15.1%, the inhibition at 1 µM was 36.4 ± 13.3% and the inhibition at 10 µM was 99.7 ± 1.1%. Also, in test [1] (setting [7]), the inhibition at 0.1 µM was -1.8 ± 9.7%, the inhibition at 1 µM was determined as 0.3% and the inhibition at 10 µM came to 17 ± 7.8%. Also, in test [2], the “Creatinine” value is 0.98 ± 0.13 mg/dL, the “Urine nitrogen” value amounted to 37.53 ± 7.53 mg/dL and the “Creatinine clearance” value amounted to 838 ± 187 mL/day.

For the molecule `Cc1c(C)c2c(c(C)c1O)CCC(C)(C(=O)O)O2` (centres unmarked) [Trolox, reference compound], in test [1] (setting [6]), the inhibition at 0.1 µM was 0.4 ± 1.3%, the inhibition at 1 µM was 6.4 ± 10.6% and the inhibition at 10 µM was determined as 17.5 ± 16.9%. Also, in test [1] (setting [7]), the inhibition at 0.1 µM is 0%, the inhibition at 1 µM is -7.1% and the inhibition at 10 µM is -4.9 ± 6.3%. Besides, in test [2], the “Creatinine” value turned out to be 0.96 ± 0.14 mg/dL, the “Urine nitrogen” value turned out to be 31.91 ± 11.93 mg/dL and the “Creatinine clearance” value amounted to 660 mL/day.

As to `Cc1c(C)c2c(c(C)c1O)CCC(C)(CCCC(C)CCCC(C)CCCC(C)C)O2` (stereo not drawn) [α-tocopherol, reference compound], in test [1] (setting [6]), the inhibition at 0.1 µM turned out to be 7.2 ± 2.2%, the inhibition at 1 µM stood at 72.1 ± 13.8% and the inhibition at 10 µM is 98.9 ± 1%. In test [1] (setting [7]), the inhibition at 0.1 µM is -2.8%, the inhibition at 1 µM was found to be 8.2 ± 5.7% and the inhibition at 10 µM was 2.7 ± 2.3%. Also, in test [5], the “effect on renal disease models / renal functions (in words)” value is on record as “its effect is not sufficient”.
